# Laboratory results as given in patent publication US20060004012A1, “Compounds, pharmaceutical compositions and methods for use in treating metabolic disorders” (priority 2004, published 2006).
# Biological target: T1, human GPR40 (Homo sapiens, UniProt O14842)
# T1 construct: expressed in transfected cells; host or cells: CHO cells, transiently transfected with Lipofectamine 2000 and co-transfected with an aequorin expression vector (Euroscreen)
# Assay: Cell-based aequorin assay using human GPR40
# Conditions: activation of human GPR40; CHO cells transfected with GPR40 and aequorin expression vectors; aequorin luminescence, area-under-curve 2-20 seconds; read-out: Relative EC50
# Description: A cell-based aequorin assay may be employed to characterize the modulatory activity of compounds on the GPR40 signaling pathway. In an exemplary assay, CHO cells are transfected in a 15 cm plated containing 14 million cells with 5 μg of GPR40 expression vector and 5 μg of Aequorin expression vector (Euroscreen) using Lipofectamine 2000 (Invitrogen). After 17-24 hours post-transfection, cells are washed with phosphate buffered saline (PBS) and detached from the tissue culture dish with 2 mL of trypsin (0.25%(w/v)). Trypsinization is halted with 28 mL of Hanks Buffered Salt Solution containing 20 mM Hepes (H/HBSS) and 0.01% fatty acid-free bovine serum albumin (BSA) or 0.625% fatty acid-free human serum albumin (HSA). Coelantrazine is added to 1 ug/mL and the cells are incubated for 2 hours at room temperature. Cells are gently mixed every 15 minutes. Compounds are dissolved in dimethyl sulfoxide for preparation of 10 mM stock solutions. Compounds are diluted in H/HBSS containing either 0.01% BSA or 0.625% HSA. Serial dilutions of the test compounds are prepared to determine dose response.
# Aequorin luminescence measurements are made using an EG&G Berthold 96-well luminometer and the response is measured over a 20 second interval after cells and compounds were mixed. The area-under-curve from 2-20 seconds is plotted to determine dose reponse. The EC50 (effective concentration to reach 50% maximal response) is determined from the dose response plot. […]
# T1 sequence (O14842 whole entry): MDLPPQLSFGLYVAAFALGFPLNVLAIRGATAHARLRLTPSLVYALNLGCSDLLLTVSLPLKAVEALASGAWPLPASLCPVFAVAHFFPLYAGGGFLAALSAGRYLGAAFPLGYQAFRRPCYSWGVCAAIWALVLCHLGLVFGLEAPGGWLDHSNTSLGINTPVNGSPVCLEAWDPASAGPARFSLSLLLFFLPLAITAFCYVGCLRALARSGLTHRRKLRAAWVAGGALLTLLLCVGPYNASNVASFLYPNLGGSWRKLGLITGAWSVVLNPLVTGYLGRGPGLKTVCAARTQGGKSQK
row,SMILES,EC50
1,"CC#CC(CC(=O)O)c1ccc(OCc2ccc(OC)cc2)cc1 (racemic) [Compound 12, (±)-3-(4-[(4-methoxyphenyl)methoxy]phenyl)-hex-4-ynoic acid]",0.1 to 1 µM
2,"CC#C[C@@H](CC(=O)O)c1ccc(OCc2ccccc2C)cc1 (single isomer, unassigned) [Compound 15]",0.01 to 0.1 µM
3,"CC#C[C@@H](CC(=O)O)c1ccc(OCc2sc(-c3ccc(C)cc3)nc2C)cc1 [Compound 3, (S)-3-[4-(4-Methyl-2-p-tolyl-thiazol-5-ylmethoxy)-phenyl]-hex-4-ynoic acid]",< 0.01 µM
4,"CC#C[C@@H](CC(=O)O)c1ccc(OCc2cc(-c3ccccc3)oc2C)cc1 [Compound 5, 3-[4-(2-Methyl-5-phenyl-furan-3-ylmethoxy)-phenyl]-hex-4-ynoic acid]",0.01 to 0.1 µM
5,CC#CC(CC(=O)O)c1ccc(OCc2cccc(-c3ccccc3)c2)cc1 (centres unmarked) [Compound 6.1],0.01 to 0.1 µM
6,CC#CC(CC(=O)O)c1ccc(OCc2cccc(-c3ccccc3OCC)c2)cc1 (centres unmarked) [Compound 6.2],0.01 to 0.1 µM
7,CC#CC(CC(=O)O)c1ccc(OCc2cccc(-c3ccc(OCC)cc3)c2)cc1 (centres unmarked) [Compound 6.3],0.01 to 0.1 µM
8,CC#CC(CC(=O)O)c1ccc(OCc2cccc(-c3ccc(C#N)cc3)c2)cc1 (centres unmarked) [Compound 6.7],0.01 to 0.1 µM
9,CC#CC(CC(=O)O)c1ccc(OCc2cccc(-c3ccccc3C(F)(F)F)c2)cc1 (centres unmarked) [Compound 6.8],0.01 to 0.1 µM
10,CC#CC(CC(=O)O)c1ccc(OCc2cccc(-c3cccc(C(F)(F)F)c3)c2)cc1 (centres unmarked) [Compound 6.9],0.01 to 0.1 µM

# The remaining lines, values ahead:
row,EC50,SMILES
1,1 to 10 µM,"Cc1ccc(C(CC(=O)O)c2ccc(OCc3cccc(Oc4ccccc4)c3)cc2)cc1 (single isomer, unassigned) [Compound 84.2]"
2,0.1 to 1 µM,"Cc1ccc(C(CC(=O)O)c2ccc(OCc3cccc(Oc4ccccc4)c3)cc2)cc1 (single isomer, unassigned) [Compound 84.3]"
3,0.1 to 1 µM,"CN(C)[C@@H](CC(=O)O)c1ccc(OCc2cccc(Oc3ccc(F)cc3)c2)cc1 (stereo in doubt) [Compound 42.14, 3-Dimethylamino-3-{4-[3-(4-fluoro-phenoxy)-benzyloxy]-phenyl}-propionic acid]"
4,1 to 10 µM,CC#CC(CC(=O)O)c1ccc(OCc2ccc(-c3ccccc3)cc2)cc1 (centres unmarked) [Compound 7.3]
5,0.01 to 0.1 µM,CC#CC(CC(=O)O)c1ccc(OCc2ccc(-c3ccccc3OCC)cc2)cc1 (centres unmarked) [Compound 7.5]
6,0.1 to 1 µM,CC#CC(CC(=O)O)c1ccc(OCc2ccc(-c3cccc(OCC)c3)cc2)cc1 (centres unmarked) [Compound 7.8]
7,0.1 to 1 µM,CC#CC(CC(=O)O)c1ccc(OCc2ccc(-c3ccc(OCC)cc3)cc2)cc1 (centres unmarked) [Compound 7.9]
8,0.1 to 1 µM,CC#CC(CC(=O)O)c1ccc(OCc2ccc(-c3ccc(C(F)(F)F)cc3)cc2)cc1 (centres unmarked) [Compound 7.10]
9,0.01 to 0.1 µM,CC#CC(CC(=O)O)c1ccc(OCc2ccc(-c3ccc(C#N)cc3)cc2)cc1 (centres unmarked) [Compound 7.15]
10,0.01 to 0.1 µM,CC#CC(CC(=O)O)c1ccc(OCc2csc(-c3ccc(C(F)(F)F)cc3)n2)cc1 (centres unmarked) [Compound 8.1]
11,0.01 to 0.1 µM,CC#CC(CC(=O)O)c1ccc(OCc2csc(-c3ccccc3)n2)cc1 (centres unmarked) [Compound 8.2]
12,0.01 to 0.1 µM,CC#CC(CC(=O)O)c1ccc(OCc2csc(-c3ccc(Cl)cc3)n2)cc1 (centres unmarked) [Compound 8.3]
13,0.01 to 0.1 µM,CC#CC(CC(=O)O)c1ccc(OCc2csc(-c3ccc(OC)cc3)n2)cc1 (centres unmarked) [Compound 8.4]
14,0.01 to 0.1 µM,CC#CC(CC(=O)O)c1ccc(OCc2csc(-c3ccc(C)cc3)n2)cc1 (centres unmarked) [Compound 8.5]
15,0.1 to 1 µM,CC#CC(CC(=O)O)c1ccc(OCc2csc(-c3ccc(OC)c(OC)c3)n2)cc1 (centres unmarked) [Compound 8.6]
16,0.01 to 0.1 µM,CC#CC(CC(=O)O)c1ccc(OCc2sc(-c3ccc(C(F)(F)F)cc3)nc2C)cc1 (centres unmarked) [Compound 9.1]
17,< 0.01 µM,CC#CC(CC(=O)O)c1ccc(OCc2sc(-c3ccc(C)cc3)nc2C)cc1 (centres unmarked) [Compound 9.2]
18,0.01 to 0.1 µM,CC#CC(CC(=O)O)c1ccc(OCc2sc(-c3ccccc3)nc2C)cc1 (centres unmarked) [Compound 9.3]
19,0.01 to 0.1 µM,CC#CC(CC(=O)O)c1ccc(OCc2sc(-c3ccc(OC)c(OC)c3)nc2C)cc1 (centres unmarked) [Compound 9.4]
